Test results taken from US10689622B2, “Culture medium for proliferating stem cell, which contains sulfated compound” (AJINOMOTO CO., INC., priority 2012, dated 2020).

Molecular target: T1, bFGF (Homo sapiens, UniProt P09038)
T1 construct: purchased Lonza (via TAKARA BIO INC.) Ser. No. 00/190,632
Assay: Evaluation of bFGF stabilization in Lonza serum-free medium (ELISA)
Assay type: biochemical
Conditions: Lonza serum-free medium, 37° C. for 7 days
Procedure: (§1) A test compound was dissolved in phosphate buffered saline, and diluted 10-fold with a serum-free medium to adjust to the concentrations shown in Table 4 (test sample). The test sample was left standing in a tightly sealed Falcon tube at 37° C. for 7 days (Tables 5 to 8-2) or 3 days (Table 8-3), and the bFGF concentration was quantified by ELISA measurement. A phosphate buffered saline without a test compound was diluted 10-fold with a serum-free medium, and left standing at 37° C. or 4° C. for 7 days or 3 days, and used as a control.
(§2) A commercially available measurement kit (human bFGF ELISA kit, ELH-bFGF-001, Ray Biotech) was used for quantification of bFGF in the medium. The measurement procedures followed the protocol attached to the kit. The bFGF concentration of the serum-free medium was calculated from the analytical curve (conversion formula) drawn from the absorbance of an analytical curve standard solution. The evaluation criteria of Tables 5-8 are as follows:
as §1, with “Table 13” for “Table 4”, “7 days,” for “7 days (Tables 5 to 8-2) or 3 days (Table 8-3),”, “7” for “7 days or 3”
as §2, with “Table 13” for “Tables 5-8”, “follows: […]” for “follows:”

T1 sequence (P09038 143-288): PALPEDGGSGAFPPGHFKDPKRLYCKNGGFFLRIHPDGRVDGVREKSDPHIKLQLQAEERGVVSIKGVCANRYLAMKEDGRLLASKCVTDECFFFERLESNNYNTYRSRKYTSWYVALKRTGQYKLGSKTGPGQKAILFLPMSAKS

| Structure (SMILES) | bFGF concentration relative to that of 4° C. control (ELISA) (test compound 25 ng/ml) | bFGF concentration relative to that of 4° C. control (ELISA) (test compound 250 ng/ml) | bFGF concentration relative to that of 4° C. control (ELISA) (test compound 25 μg/ml) | bFGF concentration relative to that of 4° C. control (ELISA) (test compound 250 μg/ml) | bFGF concentration relative to that of 4° C. control (ELISA) (test compound 250 pg/ml) |
| --- | --- | --- | --- | --- | --- |
| OC[C@@H](O)[C@@H](O[C@H]1O[C@H](CO)[C@@H](O)[C@H](O)[C@H]1O)[C@H](O)[C@@H](O)CO [maltitol, reference compound] | x (bFGF concentration was less than 10% relative to that of 4 °C control) | x (bFGF concentration was less than 10% relative to that of 4 °C control) | x (bFGF concentration was less than 10% relative to that of 4 °C control) | x (bFGF concentration was less than 10% relative to that of 4 °C control) |  |
| OC[C@@H](O)[C@@H](O)[C@H](O)[C@H](O)CO [mannitol, reference compound] | x (bFGF concentration was less than 10% relative to that of 4 °C control) | x (bFGF concentration was less than 10% relative to that of 4 °C control) | x (bFGF concentration was less than 10% relative to that of 4 °C control) | x (bFGF concentration was less than 10% relative to that of 4 °C control) |  |
| N[C@@H](CO)C(=O)O [serine, reference compound] | x (bFGF concentration was less than 10% relative to that of 4 °C control) | x (bFGF concentration was less than 10% relative to that of 4 °C control) | x (bFGF concentration was less than 10% relative to that of 4 °C control) | x (bFGF concentration was less than 10% relative to that of 4 °C control) | x (bFGF concentration was less than 10% relative to that of 4 °C control) |
| OC[C@H]1O[C@@](CO)(O[C@H]2O[C@H](CO)[C@@H](O)[C@H](O)[C@H]2O)[C@@H](O)[C@@H]1O [sucrose, reference compound] | x (bFGF concentration was less than 10% relative to that of 4 °C control) | x (bFGF concentration was less than 10% relative to that of 4 °C control) | x (bFGF concentration was less than 10% relative to that of 4 °C control) |  |  |
| OC[C@@H](O)[C@H](O)[C@@H](O)CO [xylitol, reference compound] | x (bFGF concentration was less than 10% relative to that of 4 °C control) | x (bFGF concentration was less than 10% relative to that of 4 °C control) | x (bFGF concentration was less than 10% relative to that of 4 °C control) | x (bFGF concentration was less than 10% relative to that of 4 °C control) |  |
| OC[C@H]1O[C@@H]2O[C@H]3[C@H](O)[C@@H](O)[C@@H](O[C@H]4[C@H](O)[C@@H](O)[C@@H](O[C@H]5[C@H](O)[C@@H](O)[C@@H](O[C@H]6[C@H](O)[C@@H](O)[C@@H](O[C@H]7[C@H](O)[C@@H](O)[C@@H](O[C@H]1[C@H](O)[C@H]2O)O[C@@H]7CO)O[C@@H]6CO)O[C@@H]5CO)O[C@@H]4CO)O[C@@H]3CO [α-CD, α-cyclodextrin, reference compound] |  |  |  | x (bFGF concentration was less than 10% relative to that of 4 °C control) |  |
